Data as given in patent US20250151723A1, “FUNGICIDAL COMBINATION, COMPOSITION, AND USE THEREOF” (UPL MAURITIUS LIMITED, priority 2023, published 2025).
Where two headings read alike, the source gives them in different places.

How the values were obtained:
[1] = system: Alternaria solani in tomato (early blight disease); assay: Greenhouse efficacy on tomato early blight, lesion area at 4 dpi (Examples 1-3); assay type: in vivo
Botrytis = assay: Greenhouse trial on potted plants, Botrytis in pepper (Example 7)
Procedure: (§1) Following trials were conducted on crops (potted plants) infected with the pathogen/disease in a greenhouse trial.

[2] = system: Soybean Target Spot (Corynespora cassicola); assay: Greenhouse trial on potted soybean plants, target spot (Example 8); assay type: in vivo
Target Spot = assay: Greenhouse trial on potted plants, target spot in soybean (Example 7)
Procedure: as §1

Early Blight = conditions: Tomato
Procedure: as §1

cucumber downy mildew [3] = assay: Greenhouse efficacy on cucumber downy mildew (Example 9); assay type: in vivo
[4] = system: tomato late blight disease; assay type: in vivo
[5] = system: tomato early blight disease; assay: Greenhouse efficacy on tomato early blight disease (Example 6); assay type: in vivo
[6] = system: tomato early blight disease; assay: Greenhouse trial on potted tomato plants, early blight (Example 10); assay type: in vivo
cucumber downy mildew [7] = assay: Greenhouse efficacy on cucumber downy mildew (Example 4); assay type: in vivo
[8] = 0.75 g/L, 30 g Cu/HA (standard)
[9] = 17.5 g/L, 700 g Cu/HA (standard)

O=C(O)c1ccccc1O [Salicylic acid]
Observed efficacy % ([1]; Table 1, 20 g/HA of SA): 13.3% | Observed efficacy % ([1]; Table 2, 40 mg/L, 2.5 g SA/HA): 23.4% | Observed efficacy % ([1]; Table 2, 80 mg/L, 5 g SA/HA): 22.1% | Observed efficacy % ([1]; Table 2, 320 mg/L, 10 g/HA): −2.3% | Observed efficacy % ([1]; Table 2, 320 mg/L, 20 g/HA): −2.7%

O=C1C2CC=CCC2C(=O)N1SC(Cl)(Cl)Cl (stereo not shown) [captan]
Efficacy (%) (Botrytis; 0.002 g/l, 0.16 gai/ha): 20.4% | Efficacy (%) ([2]; 0.02 g/L, 1.56 g Captan/ha): 0.4% | Efficacy (%) ([2]; 6 g/L, 467 g Captan/ha (full recommended dose)): 100%

O=C1c2ccccc2C(=O)N1SC(Cl)(Cl)Cl [folpet]
Efficacy (%) (Target Spot; 0.015 g/l, 0.625 gai/ha): 34.7% | Efficacy (%) (Botrytis; 0.002 ml/l, 0.1 gai/ha): 9.3% | Efficacy (%) ([2]; 0.015 g/L, 0.63 g Folpet/ha): 34.7% | Efficacy (%) ([2]; 5 g/L, 208.5 g Folpet/ha (full recommended dose)): 98.4%

O=C([O-])c1ccccc1O.[K+] [potassium salicylate]
Efficacy (%) (Early Blight; 0.41 g/l, 5.13 gai/ha): −3% | Efficacy (%) (Target Spot; captan and folpet sections, 0.025 g/l, 0.31 gai/ha): 19.5% | Efficacy (%) (Target Spot; captan and folpet sections, 0.1 g/l, 1.25 gai/ha): 12.4% | Efficacy (%) (Target Spot; captan and folpet sections, 0.41 g/l, 5.13 gai/ha): 1.8% | Efficacy (%) (Target Spot; captan and folpet sections, 0.82 g/l, 10.25 gai/ha): −6.1% | Efficacy (%) (Target Spot; captan and folpet sections, 1.64 g/l, 20.5 gai/ha): −11.4% | Efficacy (%) (Target Spot; mancozeb section, 0.025 g/l, 0.31 gai/ha): 16.8% | Efficacy (%) (Target Spot; mancozeb section, 0.1 g/l, 1.25 gai/ha): 12.6% | Efficacy (%) (Target Spot; mancozeb section, 0.41 g/l, 5.13 gai/ha): 27.6% | Efficacy (%) (Target Spot; mancozeb section, 0.82 g/l, 10.25 gai/ha): −3.8% | Efficacy (%) (Target Spot; mancozeb section, 1.64 g/l, 20.5 gai/ha): 6.3% | Efficacy (%) (Botrytis; 0.025 g/l, 0.31 gai/ha (mancozeb and captan sections)): −5.2% | Efficacy (%) (Botrytis; 0.1 g/l, 1.25 gai/ha (mancozeb and captan sections)): −3.9% | Efficacy (%) (Botrytis; folpet section, 0.1 g/l, 1.25 gai/ha): 12% | Observed efficacy % (cucumber downy mildew [3]; 103 mg/L, 1.29 g KSA/HA): 14.0% | Observed efficacy % (cucumber downy mildew [3]; 137 mg/L, 1.71 g KSA/HA): −1.1% | Observed efficacy % (cucumber downy mildew [3]; 207 mg/L, 2.59 g KSA/HA): −2.7% | Observed efficacy % ([4]; 137 mg/L, 1.7 g SA/HA): 15.2% | Efficacy (%) ([2]; 25 mg/L, 0.31 g KSA/ha): 19.5% | Efficacy (%) ([2]; 100 mg/L, 1.25 g KSA/ha): 12.4% | Efficacy (%) ([2]; 410 mg/L, 5.13 g KSA/ha): 1.8% | Efficacy (%) ([2]; 820 mg/L, 10.27 g KSA/ha): −6.1% | Efficacy (%) ([2]; 1.64 g/L, 20.54 g KSA/ha): −11.4% | Observed efficacy % ([5]; 310 mg/L, 3.875 g SA/HA): 2.2% | Observed efficacy % ([5]; 410 mg/L, 5.125 g SA/HA): 13.1% | Observed efficacy % ([5]; 620 mg/L, 7.75 g/HA): 11.4% | Observed efficacy % ([6]; 0.1 g/L, 1.25 gai/ha): 0.4% | Observed efficacy % ([6]; 0.41 g/L, 5.13 gai/ha): 2.3% | Observed efficacy % ([6]; 0.82 g/L, 10.25 gai/ha): 37.4% | Observed efficacy % ([6]; 1.64 g/L, 20.5 gai/ha): 34.4% | Observed efficacy % ([1]; Table 3, 410 mg/L): 5.8% | Observed efficacy (cucumber downy mildew [7]; 71 mg/L, 0.89 g SA/HA): 21.9

O=S(=O)([O-])[O-].[Cu+2].[Cu+2].[Cu+2].[Cu+2].[OH-].[OH-].[OH-].[OH-].[OH-].[OH-] [tribasic copper sulphate]
Observed efficacy % (cucumber downy mildew [3]; 0.25 g/L, 10 g Cu/HA): 50.7% | Observed efficacy % (cucumber downy mildew [3]; [8]): 96.7% | Observed efficacy % ([4]; 0.25 g/L, 10 g Cu/HA): 18.5% | Observed efficacy % [4, 8]: 62.9% | Observed efficacy % ([5]; 0.75 g/L, 30 g Cu/HA): 18.5% | Observed efficacy % [5, 9]: 57.6% | Observed efficacy % ([1]; Table 1, 150 g/HA of Cu): 31% | Observed efficacy % ([1]; Table 1, 700 g/HA of Cu (standard treatment)): 88% | Observed efficacy % ([1]; Table 2, 0.75 g/L, 150 g Cu/HA): 40.2% | Observed efficacy % ([1]; Table 2, 17.5 g/L, 700 g Cu/HA (standard)): 86.9% | Observed efficacy % ([1]; Table 3, 0.75 g/L): 23% | Observed efficacy % ([1]; Table 3, 17.5 g/L (standard)): 75% | Observed efficacy (cucumber downy mildew [7]; 0.13 g/L, 5.2 g Cu/HA): −7.6 | Observed efficacy (cucumber downy mildew [7]; [9]): 94.9

mancozeb
Efficacy (%) (Early Blight; 0.0187 g/l, 1.4 gai/ha): −12.6% | Efficacy (%) (Target Spot; 0.0075 g/l, 0.56 gai/ha): −6.6% | Efficacy (%) (Botrytis; 0.0168 g/l, 1.26 gai/ha): 26.4%
